Assay results: article PMC12155096 (International Journal of Molecular Sciences, 2025)
Counter-ions that a name gives are not always drawn. Like-named read-outs stand apart in the source and are kept apart here.

Legend:
CYP3A4 [1] = target: T1, CYP3A4 (Homo sapiens, UniProt P08684)
human CYP2D6 [2] = target: T2, human CYP2D6 (Homo sapiens, UniProt P10635); test: biochemical; conditions: for AC50: CYP2D6 AC50 (half-maximal activity concentration)
CYP3A4 [3] = target: T1, CYP3A4; test: biochemical; conditions: for AC50: CYP3A4 AC50 (half-maximal activity concentration)
[4] = target: Photinus pyralis (firefly) luciferase (Photinus pyralis, UniProt P08659); test: biochemical; format: biochemical
human CYP2C19 [5] = target: T3, human CYP2C19 (Homo sapiens, UniProt P33261); test: biochemical; conditions: for AC50: CYP2C19 AC50 (half-maximal activity concentration)
human CYP2C9 [6] = target: T4, human CYP2C9 (Homo sapiens, UniProt P11712); test: biochemical; conditions: for AC50: CYP2C9 AC50 (half-maximal activity concentration)
human CYP1A2 [7] = target: T5, human CYP1A2 (Homo sapiens, UniProt P05177); test: biochemical; conditions: for AC50: CYP1A2 AC50 (half-maximal activity concentration)
T5 sequence (P05177 1-516): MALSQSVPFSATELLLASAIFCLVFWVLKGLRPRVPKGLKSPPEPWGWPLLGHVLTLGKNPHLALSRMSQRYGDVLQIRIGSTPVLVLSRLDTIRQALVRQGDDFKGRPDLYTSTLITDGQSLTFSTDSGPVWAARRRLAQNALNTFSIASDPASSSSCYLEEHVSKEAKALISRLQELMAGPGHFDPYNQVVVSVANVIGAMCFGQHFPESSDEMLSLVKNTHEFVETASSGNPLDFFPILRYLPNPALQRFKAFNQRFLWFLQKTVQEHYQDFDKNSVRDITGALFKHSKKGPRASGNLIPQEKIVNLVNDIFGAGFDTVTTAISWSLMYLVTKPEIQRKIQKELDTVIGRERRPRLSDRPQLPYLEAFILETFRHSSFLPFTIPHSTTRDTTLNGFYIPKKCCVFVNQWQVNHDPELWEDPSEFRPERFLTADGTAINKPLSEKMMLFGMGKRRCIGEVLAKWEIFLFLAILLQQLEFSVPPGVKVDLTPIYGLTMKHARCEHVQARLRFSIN

human CYP2C9 [8] = target: T4, human CYP2C9
human CYP2D6 [9] = target: T2, human CYP2D6
human CYP1A2 [10] = target: T5, human CYP1A2
human CYP2C19 [11] = target: T3, human CYP2C19
[12] = CYP2D6 IC50 (half-maximal inhibitory concentration)
[13] = CYP2C19 IC50 (half-maximal inhibitory concentration)
[14] = CYP2C9 IC50 (half-maximal inhibitory concentration)
[15] = CYP1A2 IC50 (half-maximal inhibitory concentration)
[16] = CYP3A4 IC50 (half-maximal inhibitory concentration)

T3 sequence (P33261 whole entry): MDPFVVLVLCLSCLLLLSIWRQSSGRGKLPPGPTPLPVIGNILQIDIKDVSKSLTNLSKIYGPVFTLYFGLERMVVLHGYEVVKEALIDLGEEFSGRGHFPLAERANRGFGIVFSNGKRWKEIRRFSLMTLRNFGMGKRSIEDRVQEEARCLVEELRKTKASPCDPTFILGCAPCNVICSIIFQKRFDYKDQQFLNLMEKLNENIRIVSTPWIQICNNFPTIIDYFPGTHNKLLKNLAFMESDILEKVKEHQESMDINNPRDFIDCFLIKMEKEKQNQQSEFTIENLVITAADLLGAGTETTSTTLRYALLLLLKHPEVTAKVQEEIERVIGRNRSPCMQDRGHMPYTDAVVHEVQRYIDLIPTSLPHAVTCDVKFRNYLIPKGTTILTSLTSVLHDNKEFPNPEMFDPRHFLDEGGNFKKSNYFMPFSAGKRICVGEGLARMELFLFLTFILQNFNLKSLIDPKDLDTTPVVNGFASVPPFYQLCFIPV
Photinus pyralis (firefly) luciferase, sequence (P08659 whole entry): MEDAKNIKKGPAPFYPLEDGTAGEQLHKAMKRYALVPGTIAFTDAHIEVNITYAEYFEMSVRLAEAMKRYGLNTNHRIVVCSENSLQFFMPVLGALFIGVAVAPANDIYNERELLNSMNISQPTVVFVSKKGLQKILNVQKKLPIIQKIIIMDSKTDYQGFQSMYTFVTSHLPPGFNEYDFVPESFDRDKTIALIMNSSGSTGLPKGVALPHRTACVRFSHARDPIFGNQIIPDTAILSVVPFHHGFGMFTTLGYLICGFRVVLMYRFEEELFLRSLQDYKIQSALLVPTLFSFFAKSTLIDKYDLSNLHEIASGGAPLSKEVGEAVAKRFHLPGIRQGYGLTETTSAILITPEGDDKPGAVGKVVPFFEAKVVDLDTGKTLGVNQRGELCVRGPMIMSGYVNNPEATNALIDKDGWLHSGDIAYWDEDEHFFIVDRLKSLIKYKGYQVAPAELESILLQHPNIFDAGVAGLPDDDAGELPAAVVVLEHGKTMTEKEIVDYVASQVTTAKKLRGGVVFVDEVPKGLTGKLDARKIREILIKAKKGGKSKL
T4 sequence (P11712 whole entry): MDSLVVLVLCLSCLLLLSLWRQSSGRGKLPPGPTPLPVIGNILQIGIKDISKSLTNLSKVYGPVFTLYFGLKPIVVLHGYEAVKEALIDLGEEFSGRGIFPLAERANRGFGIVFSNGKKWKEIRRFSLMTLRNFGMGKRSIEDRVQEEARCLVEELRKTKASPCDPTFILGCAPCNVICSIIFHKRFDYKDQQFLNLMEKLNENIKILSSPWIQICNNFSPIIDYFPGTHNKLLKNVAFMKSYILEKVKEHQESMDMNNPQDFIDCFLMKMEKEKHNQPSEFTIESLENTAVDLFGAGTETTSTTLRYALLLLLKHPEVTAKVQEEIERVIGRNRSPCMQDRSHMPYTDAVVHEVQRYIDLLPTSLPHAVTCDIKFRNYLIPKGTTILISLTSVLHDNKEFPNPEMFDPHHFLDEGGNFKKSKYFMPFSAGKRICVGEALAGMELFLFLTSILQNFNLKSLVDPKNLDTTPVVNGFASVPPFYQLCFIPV
T1 sequence (P08684 whole entry): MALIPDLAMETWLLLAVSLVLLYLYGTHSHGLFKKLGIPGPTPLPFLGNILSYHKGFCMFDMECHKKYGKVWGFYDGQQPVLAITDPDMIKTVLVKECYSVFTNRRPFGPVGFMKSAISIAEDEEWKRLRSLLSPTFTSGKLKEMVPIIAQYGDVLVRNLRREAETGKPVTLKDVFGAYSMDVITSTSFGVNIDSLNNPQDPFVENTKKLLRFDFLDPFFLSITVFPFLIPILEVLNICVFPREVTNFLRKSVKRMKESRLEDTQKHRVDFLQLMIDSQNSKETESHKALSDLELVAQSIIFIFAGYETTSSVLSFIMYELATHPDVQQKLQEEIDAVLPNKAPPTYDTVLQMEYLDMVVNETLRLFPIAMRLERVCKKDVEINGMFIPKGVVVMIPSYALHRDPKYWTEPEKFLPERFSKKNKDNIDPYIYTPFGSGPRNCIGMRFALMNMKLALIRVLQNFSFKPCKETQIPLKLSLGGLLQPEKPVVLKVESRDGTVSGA
T2 sequence (P10635 whole entry): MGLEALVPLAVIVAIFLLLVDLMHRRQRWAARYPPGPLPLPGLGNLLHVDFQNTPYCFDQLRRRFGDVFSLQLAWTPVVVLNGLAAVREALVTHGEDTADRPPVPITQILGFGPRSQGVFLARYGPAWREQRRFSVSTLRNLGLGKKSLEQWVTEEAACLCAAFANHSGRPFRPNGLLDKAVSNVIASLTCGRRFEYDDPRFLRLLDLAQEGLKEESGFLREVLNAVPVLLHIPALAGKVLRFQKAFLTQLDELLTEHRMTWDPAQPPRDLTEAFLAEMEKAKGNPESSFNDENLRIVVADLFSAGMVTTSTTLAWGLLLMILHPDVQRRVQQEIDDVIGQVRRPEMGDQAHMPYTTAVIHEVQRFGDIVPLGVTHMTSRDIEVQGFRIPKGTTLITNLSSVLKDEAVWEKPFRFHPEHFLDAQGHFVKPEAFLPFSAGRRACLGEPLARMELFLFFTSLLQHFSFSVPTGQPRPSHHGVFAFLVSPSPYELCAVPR

| Structure (SMILES) | CYP3A4 IC50 (half-maximal inhibitory concentration) (CYP3A4 [1]) | AC50 (human CYP2D6 [2]) [µM] | IC50 (human CYP2D6 [2]; [12]) [µM] | AC50 (CYP3A4 [3]) [µM] | AC50 (human CYP2C19 [5]) [µM] | IC50 (human CYP2C19 [5]; [13]) [µM] | AC50 (human CYP2C9 [6]) [µM] | AC50 (human CYP1A2 [7]) [µM] | IC50 (human CYP1A2 [7]; [15]) [µM] | Luciferase IC50 (half-maximal inhibitory concentration) [4] | CYP2C9 IC50 (half-maximal inhibitory concentration) (human CYP2C9 [8]) | further results |
| --- | --- | --- | --- | --- | --- | --- | --- | --- | --- | --- | --- | --- |
| Cc1ccc2c(c1N)C(=O)c1ccccc1C2=O [1-Amino-2-methylanthraquinone] | 0.32 ± 0.14 (91 ± 19) µM | 5.59 | 5.59 | 0.32 | 5.66 | 5.66 | 3.36 | 0.58 | 0.58 |  |  | IC50 [4]: 5.87 µM; IC50 (human CYP2C9 [6]; [14]): 3.36 µM |
| C=CCOc1cc(Cl)ccc1C(=O)NCCN(CC)CC [Alloclamide] |  |  |  |  |  |  |  |  |  | Inactive | Inactive | IC50 (human CYP2D6 [2]): 0.28 µM; IC50 (CYP3A4 [3]): 16.8 µM; IC50 (human CYP2C19 [5]): 26.8 µM; IC50 (human CYP1A2 [7]): 3.34 µM |
| CCN(CCCc1ccccc1)CCCc1ccccc1 [Alverine citrate] |  | 0.87 |  | 14.4 | 7.04 |  |  | 9.92 |  |  |  | CYP3A4 IC50 (CYP3A4 [1]): 14.43 ± 1.84 (65 ± 11) µM; IC50 (human CYP2D6 [2]; CYP2D6 IC50): 0.87 µM; Luciferase IC50 [4]: Inactive; IC50 (human CYP2C19 [5]; CYP2C19 IC50): 7.04 µM; IC50 (human CYP1A2 [7]; CYP1A2 IC50): 9.92 µM; CYP2C9 IC50 (human CYP2C9 [8]): Inactive |
| CN(C)c1ccc(C(=N)c2ccc(N(C)C)cc2)cc1 [Auramine hydrochloride] |  |  | 0.08 |  |  | 21 |  |  | 25.3 | Inactive | Inactive | IC50 (CYP3A4 [3]; [16]): 39.3 µM |
| CC(O)(c1ccc(Cl)cc1)c1ccc(Cl)cc1 [Chlorfenethol] | 11.76 ± 1.5 (55 ± 6) µM | 55.5 | 55.5 | 11.8 | 0.12 | 0.12 | 7.68 | 30.6 | 30.6 | Inactive |  | IC50 (human CYP2C9 [6]; [14]): 7.68 µM |
| CCOP(=O)(OCC)OC(=CCl)c1ccc(Cl)cc1Cl [Chlorfenvinphos] | 1.18 ± 0.21 (70 ± 1) µM | 37 |  | 1.18 | 0.83 | 0.83 | 31.9 | 6.58 | 6.58 | Inactive |  | IC50 (human CYP2D6 [2]): 37 µM; IC50 (human CYP2C19 [5]; IC50 CYP2C19 assay): 0.77 µM; IC50 (human CYP2C9 [6]): 31.9 µM |
| CCOC(=O)C(O)(c1ccc(Cl)cc1)c1ccc(Cl)cc1 [Chlorobenzilate] | 9.23 ± 2.97 (118 ± 20) µM |  |  | 9.23 | 0.39 | 0.39 | 7.68 | 44.5 | 44.5 | Inactive |  | CYP2D6 AC50 (half-maximal activity concentration) (human CYP2D6 [9]): Inconclusive inhibitor; IC50 (human CYP2D6 [2]): 46.2 µM; IC50 (human CYP2C9 [6]): 7.68 µM |
| CN1CCc2cc(Cl)c(O)cc2[C@H]2c3ccccc3CC[C@@H]21 [Ecopipam] |  | 0.01 |  | 1.89 |  |  |  |  |  |  |  | CYP3A4 IC50 (CYP3A4 [1]): 1.89 ± 0.26 (95 ± 11) µM; IC50 (human CYP2D6 [2]; CYP2D6 IC50): 0.01 µM; CYP1A2 IC50 (human CYP1A2 [10]): Inactive; Luciferase IC50 [4]: Inactive; CYP2C19 IC50 (human CYP2C19 [11]): Inactive; CYP2C9 IC50 (human CYP2C9 [8]): Inactive |
| O=C1C(Cl)C(CCl)CN1c1cccc(C(F)(F)F)c1 (stereo not drawn) [Flurochloridone] |  | 35.9 | 35.9 |  | 12.3 | 12.3 | 7.82 | 1.04 | 1.04 | Inactive |  | CYP3A4 Efficacy (in parenthesis) (CYP3A4 [1]): 6.98 ± 2.77 (42 ± 7) %; IC50 (CYP3A4 [3]; [16]): 6.98 µM; CYP2C9 IC50 (half-maximal inhibitory concentration) (human CYP2C9 [8]; human): 7.82 ± 1.95 (82 ± 14) µM |
| CC(CCc1ccccc1)NCC(O)c1ccc(O)c(C(N)=O)c1 (stereo not drawn) [Labetalol hydrochloride] | 34.77 ± 1.39 (96 ± 9) µM | 0.62 | 0.62 | 34.8 |  |  |  |  |  | Inactive | Inactive | CYP1A2 IC50 (half-maximal inhibitory concentration) (human CYP1A2 [10]): Inactive |
| CCCCN1CCCC[C@H]1C(=O)Nc1c(C)cccc1C [Levobupivacaine hydrochloride] |  |  | 0.57 |  |  |  |  |  | 17.4 | Inactive | Inactive | CYP3A4 Efficacy (in parenthesis) (CYP3A4 [1]): 9.59 ± 2.39 (-54 ± 7) %; CYP2D6 Efficacy (in parenthesis) (human CYP2D6 [9]; human): 0.57 ± 0.04 (-109 ± 3) %; CYP1A2 Efficacy (in parenthesis) (human CYP1A2 [10]; human): 17.38 ± 0 (-62 ± 5) %; IC50 (CYP3A4 [3]; [16]): 9.59 µM; CYP2C19 IC50 (half-maximal inhibitory concentration) (human CYP2C19 [11]): Inactive |
